Read-outs that look alike come from different tables or passages of the source.
Key:
[1] = test system: K. pneumoniae 503-990A; test: In vivo activity alone and in combination (PD50, FIC); settings: sc; for ED50: Klebsiella pneumoniae, 503990A, alone
Protocol: (§1) In Tables 9-14, the results of the in vivo activity against certain microorganisms of compounds I, M and N as given. […] The results in these Tables and the PD50 's were determined by the procedure set forth on page 160 in Beskid et al., Antimicrobial Agents and Chemotherapy, Vol. 20, No. 2 pp. 159-167 (Aug. 1981) for "in vivo studies".
(§2) In the Tables, the fractional inhibitory concentration index (FIC) for synergistic combination of a compound of this invention (X) with known antibiotic compound (Y) is determined by the following formula:
(§3) FIC=(PD50 (X combination)/PD50 (X alone)+(PD50 (Y
(§4) combination)/PD50 (Y alone)
(§5) An FIC of ≤0.60 is indicative of synergy. The synergy rating in the Tables is as follows:
(§6) In the combination, the parts are parts by weight, i.e. 10 to 1 is 10 parts by weight to 1 part by weight.

[2] = test system: E. coli 736; test: as above; settings: Escherichia coli, sc, alone
Protocol: as §1, §2, §3, §4, §5, §6

[3] = test system: C. freundii 8ASM; test: In vivo antibacterial activity (PD50); settings: Citrobacter freundii, sc, challenge 1000 LD50s, 1 treatment, Table 11
[4] = test system: E. coli 257; test: In vivo antibacterial activity (PD50); settings: Escherichia coli, 257, sc, challenge >10^4 LD50s, 1 treatment
[5] = test system: P. vulgaris 100; test: In vivo antibacterial activity (PD50); settings: Proteus vulgaris; sc; challenge 100 LD50s; 1 treatment; Table 11
[6] = test system: E. coli 387-1; test: In vivo antibacterial activity (PD50); settings: Escherichia coli, 3871; sc; challenge 127 LD50s; 1 treatment; Table 11
[7] = test system: S. pneumoniae 6302; test: In vivo antibacterial activity (PD50); settings: Streptococcus pneumoniae, 6302, sc, challenge 1000 LD50s, 1 treatment, Table 11
[8] = test system: P. aeruginosa 6799; test: In vivo antibacterial activity (PD50); settings: Pseudomonas aeruginosa, 6799, sc, read-out: PD50
[9] = test system: P. aeruginosa 503-56; test: In vivo antibacterial activity (PD50); settings: Pseudomonas aeruginosa, 50356, sc, challenge 50 LD50s, 2 treatments, Table 11
[10] = test system: S. marcescens SM; test: In vivo antibacterial activity (PD50); settings: Serratia marcescens; sc; challenge 489 LD50s; 2 treatments; Table 11
[11] = test system: E. aerogenes 8; test: In vivo antibacterial activity (PD50); settings: Klebsiella aerogenes, 8, sc, read-out: PD50, sc, 2 treatments
[12] = test system: E. cloacae 6951; test: In vivo antibacterial activity (PD50); settings: Enterobacter cloacae, 6951, sc, 2 treatments
[13] = test system: S. faecalis C1; test: In vivo antibacterial activity (PD50); settings: Enterococcus faecalis, C1; sc; challenge 10 LD50s; 1 treatment; Table 11
[14] = test system: S. pyogenes 4; test: In vivo antibacterial activity (PD50); settings: Streptococcus pyogenes, 4, sc, sc, 2 treatments, read-out: PD50
[15] = test system: K. pneumoniae 8357; test: animal or person; format: in vivo; settings: Klebsiella pneumoniae, 8357, sc, read-out: PD50
[16] = test system: P. aeruginosa 6148B; test: In vivo antibacterial activity (PD50); settings: Pseudomonas aeruginosa, sc
[17] = test system: K. pneumoniae HE7; test: In vivo antibacterial activity (PD50); settings: Klebsiella pneumoniae, HE7, sc, 2 treatments
[18] = test system: S. marcescens S3; test: In vivo antibacterial activity (PD50); settings: Serratia marcescens, S3; sc; challenge 32 LD50s; 2 treatments; Table 11; read-out: PD50
[19] = test system: S. aureus Smith; test: In vivo antibacterial activity (PD50); settings: Staphylococcus aureus, sc, challenge 70 LD50s, 2 treatments, Table 11
[20] = test system: P. aeruginosa 6720; test: In vivo antibacterial activity (PD50); settings: Pseudomonas aeruginosa, 6720, sc, 2 treatments
[21] = test system: E. cloacae 214; test: In vivo antibacterial activity (PD50); settings: Enterobacter cloacae, sc, challenge 3.8 LD50s, 2 treatments, Table 11
Protocol: as §1

[22] = test system: S. schottmuelleri; test: In vivo antibacterial activity (PD50); settings: sc; challenge 163 LD50s; 1 treatment; Table 11
Protocol: as §1

[23] = test system: E. coli 5152; test: In vivo antibacterial activity (PD50); settings: Escherichia coli, 5152, sc, 2 treatments
[24] = test system: P. mirabilis 190; test: In vivo antibacterial activity (PD50); settings: Proteus mirabilis, sc, challenge 10^4 LD50s, 1 treatment, Table 11
[25] = test system: P. aeruginosa 6719; test: In vivo antibacterial activity (PD50); settings: Pseudomonas aeruginosa, 6719, sc
[26] = test system: P. aeruginosa 8710; test: In vivo antibacterial activity (PD50); settings: Pseudomonas aeruginosa, 8710, sc
[27] = test system: E. cloacae 4633; test: In vivo activity alone and in combination (PD50, FIC); settings: Enterobacter cloacae, 4633, sc, read-out: PD50 (alone)
Protocol: as §1, §2, §3, §4, §5, §6

[28] = test system: E. coli BC5524; test: as above
Protocol: as §1, §2, §3, §4, §5, §6

`CC1(C)S[C@@H]2[C@H](NC(=O)[C@H](N)c3ccccc3)C(=O)N2[C@H]1C(=O)O` [Ampicillin, ampicillin, reference compound] showed an ED50 [1] of 29 mg/kg, an ED50 ([1]; Table 14 line (1)) of 58 mg/kg and an ED50 ([1]; Table 14 line (2)) of 10 mg/kg. The “PD50 (alone)” value [1] was 16 mg/kg and the ED50 [2] was 5 mg/kg.

`CO/N=C(\C(=O)N[C@@H]1C(=O)N2C(C(=O)O)=C(CSc3nc(=O)c(=O)[nH]n3C)CS[C@H]12)c1csc(N)n1` [Ceftriaxone, ceftriaxone] gave an ED50 [3] of 0.15 mg/kg, an ED50 ([4]; Table 10) of less than 1 mg/kg and an ED50 ([4]; Table 11) of less than 1 mg/kg. The ED50 [5] was 0.05 mg/kg, the ED50 [6] was 0.09 mg/kg and the ED50 [7] was 0.22 mg/kg. The ED50 [8] was less than 10 mg/kg, the ED50 ([8]; sc, challenge 71 LD50s, 2 treatments, Table 11) was 16 mg/kg and the ED50 [9] was greater than 250 mg/kg. It also gave an ED50 [10] of less than 2 mg/kg, an ED50 ([11]; challenge 10 LD50s, Table 11) of 6.9 mg/kg and an ED50 ([11]; challenge 24 LD50s, Table 10) of 6.8 mg/kg. For the same compound, the ED50 ([12]; challenge 562 LD50s, Table 10) was less than 1 mg/kg, the ED50 ([12]; challenge 3162 LD50s, Table 11) was 0.03 mg/kg and the ED50 [13] was 50 mg/kg. The ED50 ([14]; challenge 3.3 LD50s, Table 11) was less than 2 mg/kg, the ED50 ([14]; challenge 100 LD50s, Table 10) was greater than 2 mg/kg and the ED50 [15] was 0.03 mg/kg. The ED50 ([16]; challenge 4.5 LD50s, 3 treatments, Table 10) was less than 5 mg/kg, the ED50 ([16]; challenge 32 LD50s, 2 treatments, Table 11) was 62 mg/kg and the ED50 ([16]; challenge 33 LD50s, 3 treatments, Table 10) was 8 mg/kg. For the same compound, the ED50 ([17]; challenge 750 LD50s, Table 10) was less than 1 mg/kg, the ED50 ([17]; challenge 1000 LD50s, Table 11) was 0.39 mg/kg and the ED50 [18] was 0.03 mg/kg. For the same compound, the ED50 [19] was 3.2 mg/kg, the ED50 ([20]; challenge 35 LD50s, Table 11) was 15 mg/kg and the ED50 ([20]; challenge 3511 LD50s, Table 10) was 14 mg/kg. It also gave an ED50 [21] of less than 10 mg/kg, an ED50 [22] of less than 0.5 mg/kg and an ED50 ([23]; challenge 2717 LD50s, Table 10) of less than 5 mg/kg. It also gave an ED50 ([23]; challenge 4780 LD50s, Table 11) of less than 2 mg/kg, an ED50 [24] of 7 µg/kg and an ED50 ([25]; challenge 2249 LD50s, 3 treatments, Table 10) of 18 mg/kg. It also gave an ED50 ([25]; challenge 2290 LD50s, 2 treatments, Table 11) of 15 mg/kg, an ED50 ([26]; alone, challenge 1738 LD50s, Table 13, read-out: PD50 (alone)) of 41 mg/kg and an ED50 ([26]; challenge >10^4 LD50s, 2 treatments, Table 11, read-out: PD50) of 31 mg/kg.

With `CC(=O)OCC1=C(C(=O)O)N2C(=O)[C@@H](NC(=O)Cc3cccs3)[C@H]2SC1` [Cephalothin, cephalothin, reference compound] the ED50 [27] was greater than 250 mg/kg, the ED50 ([28]; Escherichia coli, BC5524, sc, read-out: PD50 (alone), sc) was less than 250 mg/kg and the “PD50 (alone)” value ([28]; sc) was greater than 250 mg/kg.
